13 molecules from patent US11999727B2 (Tango Therapeutics, Inc., priority 2020, dated 2024) can be followed below.

The target of test [1] is T1, PRMT5 (Homo sapiens, UniProt O14744).
T1 construct: purchased Viva (custom protein)
The experiment in a line: PRMT5 biochemical IC50 assay with SAM as cofactor. The note with it: PRMT5, SAM as cofactor; read-out: SAM IC50.

In test [2] the test system is HAP1 MTAP-deleted cell line. In words: SDMA in-cell western assay, HAP1 MTAP-deleted. Type of test: cell-based. Conditions: for IC50: Homo sapiens, HAP1, SDMA in-cell western, HAP1 MTAP-deleted; for MTAP intact/deleted ratio: IC50 ratio HAP1 MTAP-intact / HAP1 MTAP-deleted, SDMA in-cell western. Put shortly: (§1)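 Compounds were tested in HAP1 cells differing only in MTAP status (endogenous expression versus null). Cellular SDMA levels were then measured by in-cell western, giving an IC50 in each background.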

The subject of test [3] is HAP1 MTAP-deleted cell line. In words: Viability assay, MTAP-deleted cell line. The format is cell-based. The note with it: Homo sapiens, read-out: HAP1 MTAP deleted viability. The text has this: Table 1 additionally indicates IC50 values in a viability assay for the MTAP-deleted cell line (column 10), indicating the effect of treatment with compound on cell survival.

Test [4] relates to HAP1 MTAP-intact cell line. The experiment in a line: SDMA in-cell western assay, HAP1 MTAP-intact. The note with it: Homo sapiens, HAP1, SDMA in-cell western, HAP1 MTAP-intact; read-out: MTAP HAP1 intact IC50. The format is cell-based. Put shortly: as §1
In test [5] the target is T1, PRMT5. In words: PRMT5 biochemical IC50 assay with MTA as cofactor. Conditions: PRMT5, MTA as cofactor; read-out: MTA IC50.
For test [6], the target named is T1, PRMT5. The experiment in a line: PRMT5 biochemical IC50 assay with no cofactor. Conditions: PRMT5, no cofactor. The text has this:
Table 1 indicates IC50 values (μM) against PRMT5 for exemplary compounds in the presence of SAM as cofactor, with no cofactor, and with MTA as cofactor, respectively (columns 4-6). […] Ki values can be calculated from the IC50 values as described in the Examples section. As detailed in the Examples section, for the assay performed in the presence of SAM, IC50=Ki×1.5 (Ki=IC50/1.5).

Setting [7] is: read-out: HAP 1 MTAP deleted IC50.
Setting [8] is: read-out: No Cofactor/ rel IC50.
Where [9] appears, read: HAP1, viability assay, MTAP-deleted cell line.
Where [10] appears, read: read-out: HAP1 MTAP deleted IC50.
[11] abbreviates: HAP1, viability assay, HAP1 MTAP-deleted.

T1 sequence (O14744 whole entry): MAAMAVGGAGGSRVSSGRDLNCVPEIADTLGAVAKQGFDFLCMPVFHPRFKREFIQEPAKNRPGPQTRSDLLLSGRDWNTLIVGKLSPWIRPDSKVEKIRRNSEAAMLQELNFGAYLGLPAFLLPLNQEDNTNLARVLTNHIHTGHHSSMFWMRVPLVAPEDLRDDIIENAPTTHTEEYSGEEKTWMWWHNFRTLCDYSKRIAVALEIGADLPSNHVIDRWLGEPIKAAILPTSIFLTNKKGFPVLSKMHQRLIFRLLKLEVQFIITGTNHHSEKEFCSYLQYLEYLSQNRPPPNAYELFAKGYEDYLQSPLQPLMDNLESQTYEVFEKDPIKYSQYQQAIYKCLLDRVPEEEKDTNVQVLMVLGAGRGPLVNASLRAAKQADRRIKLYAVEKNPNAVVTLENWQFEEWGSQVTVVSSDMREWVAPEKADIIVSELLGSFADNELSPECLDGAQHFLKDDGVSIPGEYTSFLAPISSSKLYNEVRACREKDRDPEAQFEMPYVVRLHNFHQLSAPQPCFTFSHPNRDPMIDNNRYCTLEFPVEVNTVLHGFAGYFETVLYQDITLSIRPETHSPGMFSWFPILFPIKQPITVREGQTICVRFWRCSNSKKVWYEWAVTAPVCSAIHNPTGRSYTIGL
T1 sequence (Q9BQA1 whole entry partner): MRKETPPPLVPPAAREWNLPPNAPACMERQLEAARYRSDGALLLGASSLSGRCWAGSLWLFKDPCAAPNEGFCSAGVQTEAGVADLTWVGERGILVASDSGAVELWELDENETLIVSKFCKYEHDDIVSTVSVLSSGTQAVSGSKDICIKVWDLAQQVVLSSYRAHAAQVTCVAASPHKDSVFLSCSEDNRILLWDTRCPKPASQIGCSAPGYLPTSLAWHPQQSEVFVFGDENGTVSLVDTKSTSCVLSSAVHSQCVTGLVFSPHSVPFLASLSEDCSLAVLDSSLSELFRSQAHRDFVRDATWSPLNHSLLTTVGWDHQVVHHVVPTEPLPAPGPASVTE

For the molecule `CCc1cc(NC(=O)C(=O)N2C[C@@H](C)CC[C@@H]2c2ccc3sc(N4CCOCC4)nc3c2)cnc1N` [Compound 1267, N-(6-amino-5-ethylpyridin-3-yl)-2-((2R,5S)-5-methyl-2-(2-morpholinobenzo[d]thiazol-5-yl)piperidin-1-yl)-2-oxoacetamide], the IC50 at PRMT5 [1] was 0.05 to 0.5 µM; in test [2] (setting [7]), < 0.1 µM; in test [3] (HAP1, viability, HAP1 MTAP-deleted cell line), < 1 µM; in test [4] it was 0.1 to 1 µM; at PRMT5 [5], < 0.05 µM; at PRMT5 [6] (setting [8]), < 0.05 µM. Further, in test [2], the “MTAP intact/deleted ratio” value is given as “A (an IC50 ratio greater than or equal to 10 fold)”.

As for `Cc1cc(NC(=O)C(=O)N2CCCC[C@@H]2c2cccs2)cnc1N` (single isomer, unassigned) [Compound 24], the IC50 was 0.05 to 0.5 µM on PRMT5 [1]; < 0.1 µM in test [2] (setting [7]); > 10 µM in test [3] (setting [9]); > 1 µM in test [4]; < 0.05 µM at PRMT5 [5]; 0.05 to 0.5 µM at PRMT5 [6] (setting [8]). The “MTAP intact/deleted ratio” value in test [2] is “A (an IC50 ratio greater than or equal to 10 fold)”.

With `NC(=O)c1cncc(NC(=O)C(=O)N2CC[C@@H]3CCCC[C@@H]3C2)c1` (racemic) [Compound 429, 5-(2-(octahydroisoquinolin-2(1B)-yl)-2-oxoacetamido)nicotinamide], the IC50 is 0.05 to 0.5 µM on PRMT5 [1]; > 1 µM in test [2] (setting [10]); > 10 µM in test [3] (setting [9]); > 1 µM in test [4]; 0.05 to 0.5 µM at PRMT5 [5]; > 0.5 µM at PRMT5 [6] (read-out: No Cofactor/rel IC50). The MTAP intact/deleted ratio result in test [2] is reported as “B (an IC50 ratio greater than or equal to 3 fold but lower than 10 fold)”.

Consider `C[C@@H]1CC[C@@H](c2ccc(NS(C)(=O)=O)nc2)N(C(=O)C(=O)Nc2cncc(C(N)=O)c2)C1` (single isomer, unassigned) [Compound 1003], for which the IC50 on PRMT5 [1] was 0.05 to 0.5 µM; in test [2] (setting [7]), > 1 µM; in test [3] (setting [9]) it was > 10 µM; in test [4] it was > 1 µM; on PRMT5 [5], < 0.05 µM; on PRMT5 [6] (read-out: No Cofactor/rel IC50), 0.05 to 0.5 µM. Moreover, in test [2], the MTAP intact/deleted ratio result is listed as “C (an IC50 ratio of less than 3 fold)”.

As for `CNc1nc2cc([C@@H]3CC[C@@H](C)CN3C(=O)C(=O)Nc3cnc(N)c(C)c3)ccc2s1` (single isomer, unassigned) [Compound 855], the IC50 on PRMT5 [1] was > 0.5 µM; in test [2] (setting [10]) it was > 1 µM; in test [3] (setting [11]) it was > 10 µM; in test [4], > 1 µM; on PRMT5 [5], > 0.5 µM; at PRMT5 [6] (read-out: No Cofactor/rel IC50) it was > 0.5 µM. For the same molecule, the MTAP intact/deleted ratio entry in test [2] was “C (an IC50 ratio of less than 3 fold)”.

As for `Cc1n[nH]c2ccc([C@@H]3CC[C@@H](C)CN3C(=O)C(=O)Nc3cncc(C(N)=O)c3)cc12` (racemic) [Compound 500, rac-5-[[2-[(2S,5R)-5-Methyl-2-(3-methyl-1H-indazol-5-yl)-1-piperidyl]-2-oxo-acetyl]amino]pyridine-3-carboxamide], the IC50 is 0.05 to 0.5 µM at PRMT5 [1]; 0.1 to 1 µM in test [2] (setting [10]); 1 to 10 µM in test [3] (setting [9]); > 1 µM in test [4]; 0.05 to 0.5 µM at PRMT5 [5]; 0.05 to 0.5 µM on PRMT5 [6] (read-out: No Cofactor/rel IC50). Further, the MTAP intact/deleted ratio entry in test [2] is on record as “A (an IC50 ratio greater than or equal to 10 fold)”.

On to `C[C@H]1CC[C@H](c2ccc(Cl)c(Cl)c2)N(C(=O)C(=O)Nc2cncc(C(N)=O)c2)C1` (single isomer, unassigned) [Compound 488], for which the IC50 on PRMT5 [1] was 0.05 to 0.5 µM; in test [2] (setting [10]), 0.1 to 1 µM; in test [3] (setting [9]), 1 to 10 µM; in test [4], > 1 µM; on PRMT5 [5] it was < 0.05 µM; on PRMT5 [6] (read-out: No Cofactor/rel IC50), 0.05 to 0.5 µM. In addition, the MTAP intact/deleted ratio result in test [2] is “A (an IC50 ratio greater than or equal to 10 fold)”.

Regarding `Cc1cnn(-c2ccc([C@@H]3CC[C@@H](C)CN3C(=O)C(=O)Nc3cncc(C(N)=O)c3)cc2)c1` (racemic) [Compound 218, rac-5-{2-[(2R,5S)-5-Methyl-2-[4-(4-methyl-11H-pyrazol-1-yl)phenyl]piperidin-1-yl]-2-oxoacetamido}pyridine-3-carboxamide], the IC50 was 0.05 to 0.5 µM on PRMT5 [1]; < 0.1 µM in test [2] (setting [10]); 1 to 10 µM in test [3] (setting [9]); > 1 µM in test [4]; < 0.05 µM on PRMT5 [5]; 0.05 to 0.5 µM on PRMT5 [6] (read-out: No Cofactor/rel IC50). Moreover, in test [2], the MTAP intact/deleted ratio result is recorded as “A (an IC50 ratio greater than or equal to 10 fold)”.

Regarding `Cc1cc(NC(=O)C(=O)N2C[C@H](C)CC[C@H]2c2cnn(-c3ccn[nH]3)c2)cnc1N` (racemic) [Compound 793, N-(6-amino-5-methyl-3-pyridyl)-2-[(2R,5S)-5-methyl-2-[1-(1H-pyrazol-3-yl)pyrazol-4-yl]-1-piperidyl]-2-oxo-acetamide], the IC50 on PRMT5 [1] was 0.05 to 0.5 µM; in test [2] (setting [10]), 0.1 to 1 µM; in test [3] (setting [11]) it was 1 to 10 µM; in test [4] it was > 1 µM; at PRMT5 [5] it was 0.05 to 0.5 µM; at PRMT5 [6] (read-out: No Cofactor/rel IC50), 0.05 to 0.5 µM. For the same molecule, the MTAP intact/deleted ratio result in test [2] is reported as “A (an IC50 ratio greater than or equal to 10 fold)”.

As for `CCc1cc(NC(=O)C(=O)N2C[C@H](C)CC[C@H]2c2ccc(NC(C)=O)cc2)cnc1N` (single isomer, unassigned) [Compound 893], the IC50 is > 0.5 µM at PRMT5 [1]; > 1 µM in test [2] (setting [7]); > 10 µM in test [3] (setting [9]); > 1 µM in test [4]; > 0.5 µM at PRMT5 [5]; > 0.5 µM on PRMT5 [6] (read-out: No Cofactor/rel IC50). The MTAP intact/deleted ratio result in test [2] was “B (an IC50 ratio greater than or equal to 3 fold but lower than 10 fold)”.

Take `Cc1cc(NC(=O)C(=O)N2C[C@@H](C)CC[C@@H]2c2ccn(-c3cc[nH]n3)n2)cnc1N` (single isomer, unassigned) [Compound 789]: the IC50 on PRMT5 [1] was > 0.5 µM; in test [2] (setting [10]) it was > 1 µM; in test [3] (setting [11]) it was > 10 µM; in test [4], > 1 µM; at PRMT5 [5] it was > 0.5 µM; on PRMT5 [6] (read-out: No Cofactor/rel IC50), > 0.5 µM. The MTAP intact/deleted ratio result in test [2] is on record as “B (an IC50 ratio greater than or equal to 3 fold but lower than 10 fold)”.

Regarding `C[C@H]1CC[C@H](c2cc(F)c(F)c(F)c2)N(C(=O)C(=O)Nc2cncc(C(N)=O)c2)C1` (single isomer, unassigned) [Compound 477], the IC50 is 0.05 to 0.5 µM at PRMT5 [1]; < 0.1 µM in test [2] (setting [10]); 1 to 10 µM in test [3] (setting [9]); > 1 µM in test [4]; < 0.05 µM on PRMT5 [5]; 0.05 to 0.5 µM on PRMT5 [6] (read-out: No Cofactor/rel IC50). Also, in test [2], the MTAP intact/deleted ratio entry is “A (an IC50 ratio greater than or equal to 10 fold)”.

Consider `Cc1cc(NC(=O)C(=O)N2C[C@H](C)CC[C@H]2C2CCCCC2)cnc1N` (single isomer, unassigned) [Compound 148], for which the IC50 was 0.05 to 0.5 µM on PRMT5 [1]; < 0.1 µM in test [2] (setting [7]); 1 to 10 µM in test [3] (setting [9]); 0.1 to 1 µM in test [4]; < 0.05 µM on PRMT5 [5]; 0.05 to 0.5 µM on PRMT5 [6] (setting [8]). The “MTAP intact/deleted ratio” value in test [2] is recorded as “A (an IC50 ratio greater than or equal to 10 fold)”.
